test system: Human hepatic cancer cells HepG2; assay: TG production inhibiting activity (14C-acetic acid incorporation into TG) in HepG2 cells; assay type: cell-based; conditions: Homo sapiens, HepG2; group criterion, alternatives: IC50 at least 10 μM and less than 100 μM, or at least 5% and less than 30% inhibition at 1 μM, or at least 30% and less than 50% inhibition at 10 μM
Method: Human hepatic cancer cells HepG2 were inoculated into a 24-well plate (Costar No. 3524) at 4×10^4 cells/well, and 1 ml of medium (eRDF medium containing 10% bovine serum (Kyokuto Chemical Co.)) was used for 6 day culturing with 5% CO2 at 37° C. After drawing off the supernatant medium, the cells were freshly rinsed with 1 ml of PBS(−) buffer solution (Takara Shuzo) and drawn off. This procedure was repeated twice and then 1 ml of fresh medium (eRDF medium) was added.
6-(benzofuran-2-yl)-3,5-dimethyl-4-hydroxy-2H-pyran-2-one (Example 2) was dissolved in dimethylsulfoxide (DMSO) to prepare a 20 mM sample stock solution. A diluted solution was obtained by diluting the sample solution with DMSO.
To the cells prepared above there were added the sample stock solution or its diluted solution at 5 μl per well and 10 μl of ^14C-acetic acid solution (a solution of Amersham Code No. CFA13 diluted 4.4-fold with PBS(−) buffer), and culturing was carried out for one day with 5% CO2 at 37° C.
After the culturing was completed, the culture solution was removed, and 1 ml of extraction solution (a mixture of n-hexane and isopropyl alcohol at 2:1) was added for extraction treatment on the lipid components in the cells. After the treatment, the extract containing the obtained lipid components was air-dried, the residue was redissolved in 20 μl of a mixed solution of n-hexane and ethyl acetate at 9:1, and the solution was spotted on a thin-layer chromatography plate (S319, Tokyo Kasei) and developed by thin-layer chromatography with the mixed solution mentioned above. After air-drying, the lipid components were colored with iodine vapor, the portion corresponding to TG was cut out, and the amount of TG biosynthesized was measured with a liquid scintillation counter.

SMILES	IC50
Cc1c(-c2cc3cc(OC(C)c4ccccc4C(F)(F)F)ccc3o2)oc(=O)c(C)c1O (stereo not drawn) [Example 144, 3,5-dimethyl-4-hydroxy-6-(5-(1-(2-(trifluoromethyl)phenyl)ethoxy)benzofuran-2-yl)-2H-pyran-2-one]	10 to 100 µM
Cc1c(-c2cc3cc(OCc4cc(Cl)ccc4Cl)ccc3o2)oc(=O)c(C)c1O [Example 155, 6-(5-(2,5-dichlorobenzyloxy)benzofuran-2-yl)-3,5-dimethyl-4-hydroxy-2H-pyran-2-one]	10 to 100 µM
Cc1c(-c2cc3cc(OCc4c(Cl)cccc4Cl)ccc3o2)oc(=O)c(C)c1O [Example 157, 6-(5-(2,6-dichlorobenzyloxy)benzofuran-2-yl)-3,5-dimethyl-4-hydroxy-2H-pyran-2-one]	10 to 100 µM
Cc1c(-c2cc3cc(OCc4ccc5ccccc5c4)ccc3o2)oc(=O)c(C)c1O [Example 175, 3,5-dimethyl-4-hydroxy-6-(5-(2-naphthylmethoxy)benzofuran-2-yl)-2H-pyran-2-one]	10 to 100 µM
Cc1c(-c2cc3cc(OCC4COc5ccccc5O4)ccc3o2)oc(=O)c(C)c1O (stereo not drawn) [Example 177, 6-(5-(1,4-benzodioxan-2-ylmethoxy)benzofuran-2-yl)-3,5-dimethyl-4-hydroxy-2H-pyran-2-one]	10 to 100 µM
CCC=CCCOc1ccc2oc(-c3oc(=O)c(C)c(O)c3C)cc2c1 [Example 179, 3,5-dimethyl-6-(5-(3-hexen-1-yloxy)benzofuran-2-yl)-4-hydroxy-2H-pyran-2-one]	10 to 100 µM
CC#CCOc1ccc2oc(-c3oc(=O)c(C)c(O)c3C)cc2c1 [Example 181, 6-(5-(2-butyn-1-yloxy)benzofuran-2-yl)-3,5-dimethyl-4-hydroxy-2H-pyran-2-one]	10 to 100 µM
Cc1c(-c2cc3cc(OCC4COC(C)(C)O4)ccc3o2)oc(=O)c(C)c1O (stereo not drawn) [Example 183, 3,5-dimethyl-6-(5-(2,2-dimethyl-1,3-dioxolan-4-ylmethoxy)benzofuran-2-yl)-4-hydroxy-2H-pyran-2-one]	10 to 100 µM
CCOCCOc1ccc2oc(-c3oc(=O)c(C)c(O)c3C)cc2c1 [Example 185, 3,5-dimethyl-6-(5-(2-ethoxyethoxy)benzofuran-2-yl)-4-hydroxy-2H-pyran-2-one]	10 to 100 µM
Cc1c(-c2cc3cc(OCC4(C)COC4)ccc3o2)oc(=O)c(C)c1O [Example 187, 3,5-dimethyl-4-hydroxy-6-(5-(3-methyloxetan-3-ylmethoxy)benzofuran-2-yl)-2H-pyran-2-one]	10 to 100 µM
C=CCCCCOc1ccc2oc(-c3oc(=O)c(C)c(O)c3C)cc2c1 [Example 191, 3,5-dimethyl-6-(5-(5-hexen-1-yloxy)benzofuran-2-yl)-4-hydroxy-2H-pyran-2-one]	10 to 100 µM
Cc1c(-c2cc3cc(OCC(c4ccccc4)c4ccccc4)ccc3o2)oc(=O)c(C)c1O [Example 195, 3,5-dimethyl-6-(5-(2,2-diphenylethoxy)benzofuran-2-yl)-4-hydroxy-2H-pyran-2-one]	10 to 100 µM
COc1ccc(C(Oc2ccc3oc(-c4oc(=O)c(C)c(O)c4C)cc3c2)c2ccc(OC)cc2)cc1 [Example 201, 6-(5-(bis(4-methoxyphenyl)methoxy)benzofuran-2-yl)-3,5-dimethyl-4-hydroxy-2H-pyran-2-one]	10 to 100 µM
Cc1c(-c2cc3cc(OCCCc4ccccc4)ccc3o2)oc(=O)c(C)c1O [Example 203, 3,5-dimethyl-4-hydroxy-6-(5-(3-phenylpropoxy)benzofuran-2-yl)-2H-pyran-2-one]	10 to 100 µM
Cc1c(-c2cc3cc(OCC4CCCCC4)ccc3o2)oc(=O)c(C)c1O [Example 207, 6-(5-(cyclohexylmethoxy)benzofuran-2-yl)-3,5-dimethyl-4-hydroxy-2H-pyran-2-one]	10 to 100 µM
Cc1c(-c2cc3cc(OCCOCc4ccccc4)ccc3o2)oc(=O)c(C)c1O [Example 213, 6-(5-(2-(benzyloxy)ethoxy)benzofuran-2-yl)-3,5-dimethyl-4-hydroxy-2H-pyran-2-one]	10 to 100 µM
CCOC(=O)CCCCCOc1ccc2oc(-c3oc(=O)c(C)c(O)c3C)cc2c1 [Example 217, 3,5-dimethyl-6-(5-(5-(ethoxycarbonyl)pentyloxy)benzofuran-2-yl)-4-hydroxy-2H-pyran-2-one]	10 to 100 µM
Cc1c(-c2cc3cc(OCC4CCCCN4C(=O)OC(C)(C)C)ccc3o2)oc(=O)c(C)c1O (stereo not drawn) [Example 220, 6-(5-(1-t-butoxycarbonylpiperidin-2-ylmethoxy)benzofuran-2-yl)-3,5-dimethyl-4-hydroxy-2H-pyran-2-one]	10 to 100 µM
Cc1c(-c2cc3cc(OC4CCN(C(=O)OC(C)(C)C)CC4)ccc3o2)oc(=O)c(C)c1O [Example 222, 6-(5-(1-t-butoxycarbonylpiperidin-4-yloxy)benzofuran-2-yl)-3,5-dimethyl-4-hydroxy-2H-pyran-2-one]	10 to 100 µM
Cc1c(-c2cc3cc(OCCCCNC(=O)OC(C)(C)C)ccc3o2)oc(=O)c(C)c1O [Example 224, 6-(5-(4-(t-butoxycarbonylamino)butoxy)benzofuran-2-yl)-3,5-dimethyl-4-hydroxy-2H-pyran-2-one]	10 to 100 µM
Cc1c(-c2cc3cc(OCc4ccccc4[N+](=O)[O-])ccc3o2)oc(=O)c(C)c1O [Example 230, 3,5-dimethyl-4-hydroxy-6-(5-(2-nitrobenzyloxy)benzofuran-2-yl)-2H-pyran-2-one]	10 to 100 µM
Cc1c(-c2cc3cc(OCc4ccccc4Cl)ccc3o2)oc(=O)c(C)c1O [Example 240, 6-(5-(2-chlorobenzyloxy)benzofuran-2-yl)-3,5-dimethyl-4-hydroxy-2H-pyran-2-one]	10 to 100 µM

same assay, conditions: Homo sapiens, HepG2; group criterion, alternatives: IC50 less than 10 μM, or at least 30% inhibition at 1 μM, or at least 50% inhibition at 10 μM

SMILES	IC50
Cc1ccc(COc2ccc3oc(-c4oc(=O)c(C)c(O)c4C)cc3c2)cc1C [Example 134, 6-(5-(3,4-dimethylbenzyloxy)benzofuran-2-yl)-3,5-dimethyl-4-hydroxy-2H-pyran-2-one]	< 10 µM
Cc1c(-c2cc3cc(OCc4cccs4)ccc3o2)oc(=O)c(C)c1O [Example 138, 3,5-dimethyl-4-hydroxy-6-(5-((2-thienyl)methoxy)benzofuran-2-yl)-2H-pyran-2-one]	< 10 µM
Cc1c(-c2cc3cc(OCc4ccc(Cl)cc4Cl)ccc3o2)oc(=O)c(C)c1O [Example 153, 6-(5-(2,4-dichlorobenzyloxy)benzofuran-2-yl)-3,5-dimethyl-4-hydroxy-2H-pyran-2-one]	< 10 µM
Cc1c(-c2cc3cc(OCc4ccc(Cl)c(Cl)c4)ccc3o2)oc(=O)c(C)c1O [Example 159, 6-(5-(3,4-dichlorobenzyloxy)benzofuran-2-yl)-3,5-dimethyl-4-hydroxy-2H-pyran-2-one]	< 10 µM
CCCCOc1ccc(COc2ccc3oc(-c4oc(=O)c(C)c(O)c4C)cc3c2)cc1 [Example 163, 6-(5-(4-n-butoxybenzyloxy)benzofuran-2-yl)-3,5-dimethyl-4-hydroxy-2H-pyran-2-one]	< 10 µM
Cc1c(-c2cc3ccc(OC4CCCc5ccccc54)cc3o2)oc(=O)c(C)c1O (stereo not drawn) [Example 170, 3,5-dimethyl-4-hydroxy-6-(6-(1,2,3,4-tetrahydronaphthalen-1-yloxy)benzofuran-2-yl)-2H-pyran-2-one]	< 10 µM
C#CCOc1ccc2oc(-c3oc(=O)c(C)c(O)c3C)cc2c1 [Example 215, 3,5-dimethyl-4-hydroxy-6-(5-(2-propyn-1-yloxy)benzofuran-2-yl)-2H-pyran-2-one]	< 10 µM
Cc1c(-c2cc3cc(OCc4cccc(F)c4)ccc3o2)oc(=O)c(C)c1O [Example 226, 3,5-dimethyl-6-(5-(3-fluorobenzyloxy)benzofuran-2-yl)-4-hydroxy-2H-pyran-2-one]	< 10 µM
Cc1c(-c2cc3cc(OCc4ccc(F)cc4)ccc3o2)oc(=O)c(C)c1O [Example 228, 3,5-dimethyl-6-(5-(4-fluorobenzyloxy)benzofuran-2-yl)-4-hydroxy-2H-pyran-2-one]	< 10 µM
COc1cccc(COc2ccc3oc(-c4oc(=O)c(C)c(O)c4C)cc3c2)c1 [Example 236, 3,5-dimethyl-4-hydroxy-6-(5-(3-methoxybenzyloxy)benzofuran-2-yl)-2H-pyran-2-one]	< 10 µM
Cc1c(-c2cc3cc(OCc4cccc(Cl)c4)ccc3o2)oc(=O)c(C)c1O [Example 242, 6-(5-(3-chlorobenzyloxy)benzofuran-2-yl)-3,5-dimethyl-4-hydroxy-2H-pyran-2-one]	< 10 µM
Cc1c(-c2cc3cc(OCc4cncs4)ccc3o2)oc(=O)c(C)c1O [Example 243, 3,5-dimethyl-4-hydroxy-6-(5-(5-thiazolylmethoxy)benzofuran-2-yl)-2H-pyran-2-one]	< 10 µM
CC(=O)Oc1c(C)c(-c2cc3cc(OCc4sc(Cl)nc4Cl)ccc3o2)oc(=O)c1C [Example 244, 4-acetyloxy-6-(5-(2,4-dichloro-5-thiazolylmethoxy)benzofuran-2-yl)-3,5-dimethyl-2H-pyran-2-one]	< 10 µM
Cc1c(-c2cc3cc(OCc4ccsc4)ccc3o2)oc(=O)c(C)c1O [Example 246, 3,5-dimethyl-4-hydroxy-6-(5-(3-thienylmethoxy)benzofuran-2-yl)-2H-pyran-2-one]	< 10 µM
